Species: Rattus norvegicus
Assay: DrugMatrix - Regimen: Daily Repeat
Type: toxicity, organism-based, Sprague-Dawley
Set-up: regimen Daily Repeat, gender Male, age 6-8 weeks
Settings: in vivo, po, route oral GAVAGE, vehicle .5 % CMC; for ABSOLUTE BASOPHIL / ABSOLUTE EOSINOPHIL / ABSOLUTE LYMPHOCYTE / ABSOLUTE MONOCYTE / ABSOLUTE SEGMENTED NEUTROPHIL / BASOPHIL / EOSINOPHIL / ERYTHROCYTE COUNT / HEMATOCRIT / HEMOGLOBIN / LEUKOCYTE COUNT / LYMPHOCYTE / MEAN CORPUSCULAR HEMOGLOBIN / MEAN CORPUSCULAR HEMOGLOBIN CONCENTRATION / MEAN CORPUSCULAR VOLUME / MONOCYTE / NEUTROPHIL / NUCLEATED RED BLOOD CELLS / PLATELET COUNT: tissue Blood; for ALANINE AMINOTRANSFERASE / ALBUMIN / ALKALINE PHOSPHATASE / ASPARTATE AMINOTRANSFERASE / BLOOD UREA NITROGEN / CARBON DIOXIDE / CHLORIDE / CHOLESTEROL / CREATINE PHOSPHOKINASE / CREATININE / GLUCOSE / LACTATE DEHYDROGENASE / LIPASE / PHOSPHORUS / POTASSIUM / SODIUM / TOTAL BILIRUBIN / TOTAL PROTEIN / URIC ACID: tissue Plasma
[1] = 25 mg/kg, 72 h, dose level Low, time 3 day
[2] = 25 mg/kg, 120 h, dose level Low, time 5 day
[3] = 1500 mg/kg, 72 h, dose level High, time 3 day
[4] = 1500 mg/kg, 120 h, dose level High, time 5 day

Cc1ccc(S(=O)(=O)NC(=O)NN2CCCCCC2)cc1 [TOLAZAMIDE]
ABSOLUTE BASOPHIL [1]: 0 CELLS/uL
ABSOLUTE EOSINOPHIL [1]: 281.67 CELLS/uL
ABSOLUTE LYMPHOCYTE [1]: 14664 CELLS/uL
ABSOLUTE MONOCYTE [1]: 321 CELLS/uL
ABSOLUTE SEGMENTED NEUTROPHIL [1]: 2033.33 CELLS/uL
BASOPHIL [1]: 0%
EOSINOPHIL [1]: 1.67%
ERYTHROCYTE COUNT [1]: 5.23 x10E6/uL
HEMATOCRIT [1]: 32.97%
HEMOGLOBIN [1]: 12.7 G/DL
LEUKOCYTE COUNT [1]: 17.3 x10E3/uL
LYMPHOCYTE [1]: 85%
MEAN CORPUSCULAR HEMOGLOBIN [1]: 24.27 pg
MEAN CORPUSCULAR HEMOGLOBIN CONCENTRATION [1]: 38.53 G/DL
MEAN CORPUSCULAR VOLUME [1]: 63 fL
MONOCYTE [1]: 2%
NEUTROPHIL [1]: 11.33%
NUCLEATED RED BLOOD CELLS [1]: 0 /100WBC
PLATELET COUNT [1]: 1363.33 x10E3/uL
ALANINE AMINOTRANSFERASE [1]: 47.33 u/L
ALBUMIN [1]: 4.3 G/DL
ALKALINE PHOSPHATASE [1]: 373.67 u/L
ASPARTATE AMINOTRANSFERASE [1]: 73.33 u/L
BLOOD UREA NITROGEN [1]: 13.33 mg/dL
CARBON DIOXIDE [1]: 22 mmol/L
CHLORIDE [1]: 102.33 MEQ/L
CHOLESTEROL [1]: 62.67 mg/dL
CREATINE PHOSPHOKINASE [1]: 209.33 u/L
CREATININE [1]: 0.17 mg/dL
GLUCOSE [1]: 152.33 mg/dL
LACTATE DEHYDROGENASE [1]: 265 u/L
LIPASE [1]: 9 u/L
PHOSPHORUS [1]: 13.13 mg/dL
POTASSIUM [1]: 7.02 MEQ/L
SODIUM [1]: 143.5 MEQ/L
TOTAL BILIRUBIN [1]: 0.17 mg/dL
TOTAL PROTEIN [1]: 5.3 G/DL
URIC ACID [1]: 1.97 mg/dL
ABSOLUTE BASOPHIL [2]: 0 CELLS/uL
ABSOLUTE EOSINOPHIL [2]: 87.33 CELLS/uL
ABSOLUTE LYMPHOCYTE [2]: 13745 CELLS/uL
ABSOLUTE MONOCYTE [2]: 575.67 CELLS/uL
ABSOLUTE SEGMENTED NEUTROPHIL [2]: 1458.67 CELLS/uL
BASOPHIL [2]: 0%
EOSINOPHIL [2]: 0.67%
ERYTHROCYTE COUNT [2]: 6.16 x10E6/uL
HEMATOCRIT [2]: 38.13%
HEMOGLOBIN [2]: 13.9 G/DL
LEUKOCYTE COUNT [2]: 15.87 x10E3/uL
LYMPHOCYTE [2]: 86.67%
MEAN CORPUSCULAR HEMOGLOBIN [2]: 22.6 pg
MEAN CORPUSCULAR HEMOGLOBIN CONCENTRATION [2]: 36.47 G/DL
MEAN CORPUSCULAR VOLUME [2]: 61.93 fL
MONOCYTE [2]: 3.67%
NEUTROPHIL [2]: 9%
NUCLEATED RED BLOOD CELLS [2]: 0 /100WBC
PLATELET COUNT [2]: 1264.67 x10E3/uL
ALANINE AMINOTRANSFERASE [2]: 46.67 u/L
ALBUMIN [2]: 4.3 G/DL
ALKALINE PHOSPHATASE [2]: 296.33 u/L
ASPARTATE AMINOTRANSFERASE [2]: 92.67 u/L
BLOOD UREA NITROGEN [2]: 17.33 mg/dL
CARBON DIOXIDE [2]: 23.67 mmol/L
CHLORIDE [2]: 109.33 MEQ/L
CHOLESTEROL [2]: 61.67 mg/dL
CREATINE PHOSPHOKINASE [2]: 320 u/L
CREATININE [2]: 0.19 mg/dL
GLUCOSE [2]: 152.33 mg/dL
LACTATE DEHYDROGENASE [2]: 425.33 u/L
LIPASE [2]: 9 u/L
PHOSPHORUS [2]: 11.2 mg/dL
POTASSIUM [2]: 5.71 MEQ/L
SODIUM [2]: 148.83 MEQ/L
TOTAL BILIRUBIN [2]: 0.17 mg/dL
TOTAL PROTEIN [2]: 6.13 G/DL
URIC ACID [2]: 1.27 mg/dL
ABSOLUTE BASOPHIL [3]: 0 CELLS/uL
ABSOLUTE EOSINOPHIL [3]: 0 CELLS/uL
ABSOLUTE LYMPHOCYTE [3]: 13270.33 CELLS/uL
ABSOLUTE MONOCYTE [3]: 328.33 CELLS/uL
ABSOLUTE SEGMENTED NEUTROPHIL [3]: 801.33 CELLS/uL
BASOPHIL [3]: 0%
EOSINOPHIL [3]: 0%
ERYTHROCYTE COUNT [3]: 5.57 x10E6/uL
HEMATOCRIT [3]: 35.93%
HEMOGLOBIN [3]: 13.3 G/DL
LEUKOCYTE COUNT [3]: 14.4 x10E3/uL
LYMPHOCYTE [3]: 92%
MEAN CORPUSCULAR HEMOGLOBIN [3]: 23.9 pg
MEAN CORPUSCULAR HEMOGLOBIN CONCENTRATION [3]: 37.03 G/DL
MEAN CORPUSCULAR VOLUME [3]: 64.5 fL
MONOCYTE [3]: 2.33%
NEUTROPHIL [3]: 5.67%
NUCLEATED RED BLOOD CELLS [3]: 0 /100WBC
PLATELET COUNT [3]: 1235.33 x10E3/uL
ALANINE AMINOTRANSFERASE [3]: 26.33 u/L
ALBUMIN [3]: 4.3 G/DL
ALKALINE PHOSPHATASE [3]: 233.33 u/L
ASPARTATE AMINOTRANSFERASE [3]: 69 u/L
BLOOD UREA NITROGEN [3]: 17.67 mg/dL
CARBON DIOXIDE [3]: 25 mmol/L
CHLORIDE [3]: 106.33 MEQ/L
CHOLESTEROL [3]: 46.67 mg/dL
CREATINE PHOSPHOKINASE [3]: 172 u/L
CREATININE [3]: 0.18 mg/dL
GLUCOSE [3]: 142 mg/dL
LACTATE DEHYDROGENASE [3]: 80.67 u/L
LIPASE [3]: 8 u/L
PHOSPHORUS [3]: 9.5 mg/dL
POTASSIUM [3]: 5.38 MEQ/L
SODIUM [3]: 145.4 MEQ/L
TOTAL BILIRUBIN [3]: 0.27 mg/dL
TOTAL PROTEIN [3]: 5.8 G/DL
URIC ACID [3]: 1.07 mg/dL
ABSOLUTE BASOPHIL [4]: 0 CELLS/uL
ABSOLUTE EOSINOPHIL [4]: 47.67 CELLS/uL
ABSOLUTE LYMPHOCYTE [4]: 13177.33 CELLS/uL
ABSOLUTE MONOCYTE [4]: 515.33 CELLS/uL
ABSOLUTE SEGMENTED NEUTROPHIL [4]: 1493 CELLS/uL
BASOPHIL [4]: 0%
EOSINOPHIL [4]: 0.33%
ERYTHROCYTE COUNT [4]: 6.17 x10E6/uL
HEMATOCRIT [4]: 38.2%
HEMOGLOBIN [4]: 14.3 G/DL
LEUKOCYTE COUNT [4]: 15.23 x10E3/uL
LYMPHOCYTE [4]: 86.67%
MEAN CORPUSCULAR HEMOGLOBIN [4]: 23.2 pg
MEAN CORPUSCULAR HEMOGLOBIN CONCENTRATION [4]: 37.47 G/DL
MEAN CORPUSCULAR VOLUME [4]: 61.93 fL
MONOCYTE [4]: 3.33%
NEUTROPHIL [4]: 9.67%
NUCLEATED RED BLOOD CELLS [4]: 0 /100WBC
PLATELET COUNT [4]: 1206.33 x10E3/uL
ALANINE AMINOTRANSFERASE [4]: 28 u/L
ALBUMIN [4]: 4.7 G/DL
ALKALINE PHOSPHATASE [4]: 319.67 u/L
ASPARTATE AMINOTRANSFERASE [4]: 70.67 u/L
BLOOD UREA NITROGEN [4]: 19 mg/dL
CARBON DIOXIDE [4]: 25.33 mmol/L
CHLORIDE [4]: 105.33 MEQ/L
CHOLESTEROL [4]: 58.33 mg/dL
CREATINE PHOSPHOKINASE [4]: 168.67 u/L
CREATININE [4]: 0.2 mg/dL
GLUCOSE [4]: 138.67 mg/dL
LACTATE DEHYDROGENASE [4]: 114 u/L
LIPASE [4]: 9.33 u/L
PHOSPHORUS [4]: 13.07 mg/dL
POTASSIUM [4]: 6.1 MEQ/L
SODIUM [4]: 149.93 MEQ/L
TOTAL BILIRUBIN [4]: 0.2 mg/dL
TOTAL PROTEIN [4]: 6.57 G/DL
URIC ACID [4]: 2.17 mg/dL

From ChEMBL document CHEMBL3885881, “DrugMatrix”
